Data published in patent US9505716B2, “Pyrrolidine triple reuptake inhibitors” (SUNOVION PHARMACEUTICALS INC., priority 2009, dated 2016).

Assays:
[1] = target: T1, recombinant human serotonin transporter expressed in HEK-293 cells (Homo sapiens, UniProt P31645); experiment: Serotonin functional uptake assay for human reuptake transporter; type: cell-based; conditions: functional uptake of serotonin; read-out: hSERT (IC50 nM)
T1 construct: expressed in transfected cells; host or cells: HEK-293
Protocol: (§1) Compounds were initially tested at 10 μM in duplicate.
HEK-293 cells expressing human serotonin transporter were plated before the assay. […] Cells with internalized [^3H]serotonin were washed and the amount of tritium taken into cells is counted using a liquid scintillation counter to determine [^3H]serotonin uptake. Non-specific binding of tritium was measured in a control reaction containing […], and was subtracted from the counts for assays to correct for non-specific binding of tritium. Reduction of [^3H]serotonin uptake by 50 percent or more (≧50%) relative to an uninhibited control reaction indicates significant inhibitory activity.

[2] = target: T2, recombinant human norepinephrine transporter expressed in either HEK293 or MDCK cells (Homo sapiens, UniProt P23975); experiment: Norepinephrine functional uptake assay for human reuptake transporter; type: cell-based; conditions: functional uptake of norepinephrine
T2 construct: expressed in transfected cells; host or cells: HEK293 or MDCK
Protocol: as §1
The cells were plated before the assay. Test compound and/or vehicle was preincubated with cells in modified HEPES buffer pH 7.1 or pH 7.4 for 20 minutes at 18 to 25° C. […] After the cells were washed to remove [^3H]norepinephrine not internalized, the cells were lysed, and the amount of tritium in the cell lysate was measured using a liquid scintillation counter to determine [^3H]norepinephrine uptake. Non-specific binding of tritium was measured in a control reaction containing […] (or […]), and was subtracted from the counts for assays to correct for non-specific binding of tritium. Reduction of [^3H]norepinephrine uptake by 50 percent or more (≧50%) relative to an uninhibited control reaction indicates significant inhibitory activity.

[3] = target: T3, recombinant human dopamine transporter expressed in either CHO-K1 or HEK293 cells (Homo sapiens, UniProt Q01959); experiment: Dopamine functional uptake assay for human reuptake transporter; type: cell-based; conditions: functional uptake of dopamine
T3 construct: expressed in transfected cells; host or cells: CHO-K1 or HEK293
Protocol: as §1
Either CHO-K1 or HEK293 cells expressing human recombinant dopamine transporter were plated before the assay. Test compound and/or vehicle was preincubated with cells in modified HEPES buffer pH 7.1 or pH 7.4 for 20 minutes at 18 to 25° C. and 50 nM [^3H]dopamine was then added for an additional timed incubation period (10 to 30 minutes). After washing the cells to remove [^3H]dopamine not internalized, the cells were lysed, and the amount of tritium in the lysate was measured using a liquid scintillation counter to determine [^3H]dopamine uptake. Non-specific binding of tritium was measured in a control reaction containing 10 μM nomifensine, and was subtracted from the counts for assays to correct for non-specific binding of tritium. Reduction of [^3H]dopamine uptake by 50 percent or more (≧50%) relative to an uninhibited control reaction indicates significant inhibitory activity.

[4] = target: serotonin uptake sites (Homo sapiens, UniProt P31645); conditions: compared with the racemic compound; cited from earlier work
[5] = in vivo; cited from earlier work

T3 sequence (Q01959 whole entry): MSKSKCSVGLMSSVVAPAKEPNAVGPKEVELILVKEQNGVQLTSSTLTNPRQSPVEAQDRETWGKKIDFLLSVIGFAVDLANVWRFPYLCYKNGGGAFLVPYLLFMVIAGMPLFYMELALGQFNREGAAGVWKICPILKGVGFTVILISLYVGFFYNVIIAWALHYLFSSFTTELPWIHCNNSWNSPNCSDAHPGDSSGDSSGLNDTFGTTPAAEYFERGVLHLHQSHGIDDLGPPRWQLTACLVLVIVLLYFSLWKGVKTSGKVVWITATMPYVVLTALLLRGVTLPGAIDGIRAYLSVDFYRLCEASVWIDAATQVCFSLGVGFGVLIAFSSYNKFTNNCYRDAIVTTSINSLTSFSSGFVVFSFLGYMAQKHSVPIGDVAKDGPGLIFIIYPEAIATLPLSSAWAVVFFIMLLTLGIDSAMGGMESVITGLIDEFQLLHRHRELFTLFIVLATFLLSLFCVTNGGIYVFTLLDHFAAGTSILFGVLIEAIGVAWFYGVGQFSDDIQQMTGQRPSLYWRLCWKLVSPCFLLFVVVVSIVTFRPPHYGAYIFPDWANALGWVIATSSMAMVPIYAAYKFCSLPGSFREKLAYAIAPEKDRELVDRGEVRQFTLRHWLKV
T1 sequence (P31645 whole entry): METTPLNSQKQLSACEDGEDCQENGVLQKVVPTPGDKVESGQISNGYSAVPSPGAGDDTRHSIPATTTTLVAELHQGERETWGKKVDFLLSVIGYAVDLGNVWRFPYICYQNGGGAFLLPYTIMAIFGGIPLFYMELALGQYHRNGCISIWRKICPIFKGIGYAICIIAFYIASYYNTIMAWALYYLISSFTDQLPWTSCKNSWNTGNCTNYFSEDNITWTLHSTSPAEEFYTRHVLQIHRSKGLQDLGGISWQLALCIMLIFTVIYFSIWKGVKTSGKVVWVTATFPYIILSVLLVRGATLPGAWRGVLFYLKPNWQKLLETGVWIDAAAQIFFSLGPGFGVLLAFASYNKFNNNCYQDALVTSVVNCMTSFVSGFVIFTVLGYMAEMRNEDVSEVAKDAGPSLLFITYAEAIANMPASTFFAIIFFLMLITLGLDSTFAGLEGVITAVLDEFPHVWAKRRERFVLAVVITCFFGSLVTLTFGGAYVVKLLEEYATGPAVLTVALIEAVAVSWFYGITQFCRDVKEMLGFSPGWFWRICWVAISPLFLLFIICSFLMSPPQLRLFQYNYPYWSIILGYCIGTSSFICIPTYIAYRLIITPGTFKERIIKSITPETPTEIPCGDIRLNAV
T2 sequence (P23975 whole entry): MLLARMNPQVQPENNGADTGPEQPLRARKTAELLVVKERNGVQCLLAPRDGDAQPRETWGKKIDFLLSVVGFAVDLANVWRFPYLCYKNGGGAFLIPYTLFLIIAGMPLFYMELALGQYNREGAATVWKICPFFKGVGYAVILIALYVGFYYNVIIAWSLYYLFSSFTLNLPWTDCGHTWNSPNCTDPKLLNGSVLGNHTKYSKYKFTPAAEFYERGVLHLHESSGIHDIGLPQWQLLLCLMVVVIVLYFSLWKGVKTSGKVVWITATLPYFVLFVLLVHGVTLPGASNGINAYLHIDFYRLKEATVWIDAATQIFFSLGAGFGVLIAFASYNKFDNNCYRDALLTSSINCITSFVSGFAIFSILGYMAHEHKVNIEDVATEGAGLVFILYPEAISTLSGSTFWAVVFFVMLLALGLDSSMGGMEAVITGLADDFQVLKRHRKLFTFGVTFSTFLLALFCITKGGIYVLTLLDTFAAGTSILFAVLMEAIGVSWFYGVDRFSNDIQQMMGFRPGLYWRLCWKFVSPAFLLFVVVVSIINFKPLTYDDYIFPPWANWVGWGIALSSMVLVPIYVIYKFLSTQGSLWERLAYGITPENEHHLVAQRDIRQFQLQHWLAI
Chain of serotonin uptake sites (P31645 whole entry): as the sequence (P31645 whole entry) above

CN1CCC(C2(c3ccc(Cl)c(Cl)c3)CCCCC2)C1 (centres unmarked) [Compound 4]
IC50 [1]: > 500 nM
hNET (IC50 nM) [2]: − (IC50 > 500 nM)
hDAT (IC50 nM) [3]: +++ (IC50 < 10 nM)

Clc1ccc(C2(C3CCNC3)CCOCC2)cc1Cl (centres unmarked) [Compound 16]
IC50 [1]: < 10 nM
hNET (IC50 nM) [2]: +++ (IC50 < 10 nM)
hDAT (IC50 nM) [3]: +++ (IC50 < 10 nM)

O[C@]1(C2(c3ccc(Cl)c(Cl)c3)CCCC2)CCNC1 [Compound 30]
IC50 [1]: < 100 nM
hNET (IC50 nM) [2]: ++ (IC50 ≦ 100 nM)
hDAT (IC50 nM) [3]: ++ (IC50 ≦ 100 nM)

C[C@]1(O)CC[C@@](c2ccc(Cl)c(Cl)c2)([C@@H]2CCNC2)CC1 [Compound 18]
IC50 [1]: < 10 nM
hNET (IC50 nM) [2]: +++ (IC50 < 10 nM)
hDAT (IC50 nM) [3]: ++ (IC50 ≦ 100 nM)

Clc1ccc(C2(C3CCNC3)CCCCC2)cc1Cl (single isomer, unassigned) [Compound 2]
IC50 [1]: < 100 nM
hNET (IC50 nM) [2]: ++ (IC50 ≦ 100 nM)
hDAT (IC50 nM) [3]: ++ (IC50 ≦ 100 nM)

Clc1ccc(C2(C3CCNC3)CCCCC2)cc1Cl (single isomer, unassigned) [Compound 1]
IC50 [1]: < 1 nM
hNET (IC50 nM) [2]: +++ (IC50 < 10 nM)
hDAT (IC50 nM) [3]: ++ (IC50 ≦ 100 nM)

CN1CCC(C2(c3ccc(Cl)c(Cl)c3)CCCCC2)C1 (centres unmarked) [Compound 3]
IC50 [1]: 100 to 500 nM
hNET (IC50 nM) [2]: + (100 nM < IC50 ≦ 500 nM)
hDAT (IC50 nM) [3]: ++ (IC50 ≦ 100 nM)

CO[C@]1(C)CC[C@](c2ccc(Cl)c(Cl)c2)([C@@H]2CCNC2)CC1 [Compound 26]
IC50 [1]: < 100 nM
hNET (IC50 nM) [2]: +++ (IC50 < 10 nM)
hDAT (IC50 nM) [3]: +++ (IC50 < 10 nM)

Clc1ccc(C2(C3CCNC3)CCC2)cc1Cl (single isomer, unassigned) [Compound 7]
IC50 [1]: < 100 nM
hNET (IC50 nM) [2]: ++ (IC50 ≦ 100 nM)
hDAT (IC50 nM) [3]: +++ (IC50 < 10 nM)

C[C@]1(O)CC[C@](c2ccc(Cl)c(Cl)c2)([C@@H]2CCNC2)CC1 [Compound 19]
IC50 [1]: < 10 nM
hNET (IC50 nM) [2]: ++ (IC50 ≦ 100 nM)
hDAT (IC50 nM) [3]: +++ (IC50 < 10 nM)

CO[C@]1(C)CC[C@@](c2ccc(Cl)c(Cl)c2)([C@@H]2CCNC2)CC1 [Compound 27]
IC50 [1]: < 10 nM
hNET (IC50 nM) [2]: +++ (IC50 < 10 nM)
hDAT (IC50 nM) [3]: ++ (IC50 ≦ 100 nM)

Clc1ccc(C2(C3CCNC3)CCCC2)cc1Cl (single isomer, unassigned) [Compound 6]
IC50 [1]: < 10 nM
hNET (IC50 nM) [2]: ++ (IC50 ≦ 100 nM)
hDAT (IC50 nM) [3]: ++ (IC50 ≦ 100 nM)

c1ccc2cc(C3(C4CCNC4)CCC3)ccc2c1 (single isomer, unassigned) [Compound 14]
IC50 [1]: < 10 nM
hNET (IC50 nM) [2]: ++ (IC50 ≦ 100 nM)
hDAT (IC50 nM) [3]: ++ (IC50 ≦ 100 nM)

c1ccc2cc(C3(C4CCNC4)CCC3)ccc2c1 (single isomer, unassigned) [Compound 13]
IC50 [1]: < 100 nM
hNET (IC50 nM) [2]: ++ (IC50 ≦ 100 nM)
hDAT (IC50 nM) [3]: ++ (IC50 ≦ 100 nM)

CO[C@]1(C)CC[C@@](c2ccc(Cl)c(Cl)c2)([C@H]2CCNC2)CC1 [Compound 28]
IC50 [1]: < 100 nM
hNET (IC50 nM) [2]: +++ (IC50 < 10 nM)
hDAT (IC50 nM) [3]: ++ (IC50 ≦ 100 nM)

O[C@@]1(C2(c3ccc(Cl)c(Cl)c3)CCCC2)CCNC1 [Compound 29]
IC50 [1]: < 10 nM
hNET (IC50 nM) [2]: +++ (IC50 < 10 nM)
hDAT (IC50 nM) [3]: ++ (IC50 ≦ 100 nM)

c1ccc2cc(C3(C4CCNC4)CCCCC3)ccc2c1 (single isomer, unassigned) [Compound 10]
IC50 [1]: < 1 nM
hNET (IC50 nM) [2]: ++ (IC50 ≦ 100 nM)
hDAT (IC50 nM) [3]: ++ (IC50 ≦ 100 nM)

O[C@H]1CC[C@@](c2ccc(Cl)c(Cl)c2)([C@@H]2CCNC2)CC1 [Compound 22]
IC50 [1]: < 10 nM
hNET (IC50 nM) [2]: +++ (IC50 < 10 nM)
hDAT (IC50 nM) [3]: +++ (IC50 < 10 nM)

c1ccc2cc(C3(C4CCNC4)CCCC3)ccc2c1 (single isomer, unassigned) [Compound 12]
IC50 [1]: < 1 nM
hNET (IC50 nM) [2]: ++++ (IC50 < 1 nM)
hDAT (IC50 nM) [3]: ++ (IC50 ≦ 100 nM)

Clc1ccc(C2(C3CCNC3)CCOCC2)cc1Cl (centres unmarked) [Compound 15]
IC50 [1]: < 100 nM
hNET (IC50 nM) [2]: ++ (IC50 ≦ 100 nM)
hDAT (IC50 nM) [3]: ++ (IC50 ≦ 100 nM)

Clc1ccc(C2(C3CCNC3)CCC2)cc1Cl (single isomer, unassigned) [Compound 8]
IC50 [1]: < 100 nM
hNET (IC50 nM) [2]: ++ (IC50 ≦ 100 nM)
hDAT (IC50 nM) [3]: ++ (IC50 ≦ 100 nM)

c1ccc2cc(C3(C4CCNC4)CCCCC3)ccc2c1 (single isomer, unassigned) [Compound 9]
IC50 [1]: < 10 nM
hNET (IC50 nM) [2]: + (100 nM < IC50 ≦ 500 nM)
hDAT (IC50 nM) [3]: ++ (IC50 ≦ 100 nM)

C[C@]1(O)CC[C@](c2ccc(Cl)c(Cl)c2)([C@H]2CCNC2)CC1 [Compound 20]
IC50 [1]: < 10 nM
hNET (IC50 nM) [2]: ++ (IC50 ≦ 100 nM)
hDAT (IC50 nM) [3]: +++ (IC50 < 10 nM)

O[C@H]1CC[C@](c2ccc(Cl)c(Cl)c2)([C@H]2CCNC2)CC1 [Compound 23]
IC50 [1]: < 10 nM
hNET (IC50 nM) [2]: +++ (IC50 < 10 nM)
hDAT (IC50 nM) [3]: +++ (IC50 < 10 nM)

Clc1ccc([C@@]23CNC[C@@H]2C3)cc1Cl (single isomer, unassigned) [DOV 21,947, (+)-1-(3,4-dichlorophenyl)-3-azabicyclo[3.1.0]hexane]
affinity for the serotonin uptake sites [4]: significantly greater affinity
immobility in the tail suspension test [5]: dose-dependent reduction in immobility

C[C@]1(O)CC[C@@](c2ccc(Cl)c(Cl)c2)([C@H]2CCNC2)CC1 [Compound 17]
IC50 [1]: < 10 nM
hNET (IC50 nM) [2]: +++ (IC50 < 10 nM)
hDAT (IC50 nM) [3]: ++ (IC50 ≦ 100 nM)

O[C@H]1CC[C@@](c2ccc(Cl)c(Cl)c2)([C@H]2CCNC2)CC1 [Compound 21]
IC50 [1]: < 10 nM
hNET (IC50 nM) [2]: +++ (IC50 < 10 nM)
hDAT (IC50 nM) [3]: ++ (IC50 ≦ 100 nM)

Clc1ccc(C2(C3CCNC3)CCCC2)cc1Cl (single isomer, unassigned) [Compound 5]
IC50 [1]: < 100 nM
hNET (IC50 nM) [2]: ++ (IC50 ≦ 100 nM)
hDAT (IC50 nM) [3]: ++ (IC50 ≦ 100 nM)

CO[C@]1(C)CC[C@](c2ccc(Cl)c(Cl)c2)([C@H]2CCNC2)CC1 [Compound 25]
IC50 [1]: < 10 nM
hNET (IC50 nM) [2]: ++ (IC50 ≦ 100 nM)
hDAT (IC50 nM) [3]: +++ (IC50 < 10 nM)

O[C@H]1CC[C@](c2ccc(Cl)c(Cl)c2)([C@@H]2CCNC2)CC1 [Compound 24]
IC50 [1]: < 1 nM
hNET (IC50 nM) [2]: ++++ (IC50 < 1 nM)
hDAT (IC50 nM) [3]: +++ (IC50 < 10 nM)

c1ccc2cc(C3(C4CCNC4)CCCC3)ccc2c1 (single isomer, unassigned) [Compound 11]
IC50 [1]: < 1 nM
hNET (IC50 nM) [2]: +++ (IC50 < 10 nM)
hDAT (IC50 nM) [3]: +++ (IC50 < 10 nM)
